The structures appear in SMILES notation. Where only a bound is given, the exact number is not on record here.

For this assay, the target named is T1, Plk1 (Homo sapiens, UniProt P53350).
T1 construct: in the presence of 15 nM Plk1 (A20-K338)
T1 sequence (P53350 20-338): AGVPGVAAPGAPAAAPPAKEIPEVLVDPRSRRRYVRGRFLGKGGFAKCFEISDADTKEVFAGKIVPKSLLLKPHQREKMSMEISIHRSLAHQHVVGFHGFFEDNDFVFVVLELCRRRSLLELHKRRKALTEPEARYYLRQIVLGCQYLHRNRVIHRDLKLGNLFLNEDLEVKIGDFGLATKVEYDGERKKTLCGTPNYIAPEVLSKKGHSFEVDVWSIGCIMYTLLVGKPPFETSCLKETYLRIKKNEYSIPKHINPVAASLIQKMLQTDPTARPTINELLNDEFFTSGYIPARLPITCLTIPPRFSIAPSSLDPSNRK
Briefly: Plk1 inhibition assay (radioactive-phosphate incorporation). The class given is biochemical. The conditions noted are these: Ki(app) from initial rate data. The method, then:
The compounds of the present invention are evaluated as inhibitors of human PLK kinase using the following assays.
Compounds were screened for their ability to inhibit Plk1 using a radioactive-phosphate incorporation assay. Assays were carried out in a mixture of 25 mM HEPES (pH 7.5), 10 mM MgCl2, and 1 mM DTT. […] An assay stock buffer solution was prepared containing all of the reagents listed above, with the exception of ATP and the test compound of interest. […] The plate was pre-incubated for 10 minutes at 25° C. and the reaction initiated by addition of 8 μL [γ-33 P]ATP (final concentration 50 μM).
The reaction was stopped after 60 minutes by the addition of 100 μL 0.14M phosphoric acid. A multiscreen phosphocellulose filter 96-well plate (Millipore, Cat no. MAPHN0B50) was pretreated with 100 μL 0.2M phosphoric acid prior to the addition of 125 μL of the stopped assay mixture. The plate was washed with 4×200 μL 0.2M phosphoric acid.
After removing mean background values for all of the data points, Ki(app) data were calculated from non-linear regression analysis of the initial rate data using the Prism software package (GraphPad Prism version 3.0cx for Macintosh, GraphPad Software, San Diego, Calif., USA).
Compounds were screened for their ability to inhibit Plk1 using a radioactive-phosphate incorporation assay. Assays were carried out in a mixture of 25 mM HEPES (pH 7.5), 10 mM MgCl2, […], and 2 mM DTT. […] An assay stock buffer solution was prepared containing all of the reagents listed above, with the exception of ATP and the test compound of interest. […] The plate was pre-incubated for 10 minutes at 25° C. and the reaction initiated by addition of 8 μL [γ-33P]ATP (final concentration 100 μM).
The reaction was stopped after 90 minutes by the addition of 100 μL 0.14M phosphoric acid. A multiscreen phosphocellulose filter 96-well plate (Millipore, Cat no. MAPHN0B50) was pretreated with 100 μL 0.2M phosphoric acid prior to the addition of 125 μL of the stopped assay mixture. The plate was washed with 4×200 μL 0.2M phosphoric acid.
For the compound `CC(Oc1cc(-c2cnn3ccccc23)sc1C(N)=O)c1ccccc1Cl` (stereo not shown) [Compound I-2, 3-[1-(2-Chloro-phenyl)-ethoxy]-5-pyrazolo[1,5-a]pyridin-3-yl-thiophene-2-carboxamide], the Ki was under 100 nM.
In the case of `CC(Oc1cc(-c2cnc3cc(N)ccn23)sc1C(N)=O)c1ccccc1Cl` (stereo not shown) [Compound I-15, 5-(7-aminoimidazo[1,2-a]pyridin-3-yl)-3-(1-(2-chlorophenyl)ethoxy)thiophene-2-carboxamide] it was under 100 nM; in that of `CCOC(=O)Nc1ccn2c(-c3cc(OC(C)c4ccccc4Cl)c(C(N)=O)s3)cnc2c1` (stereo not shown) [Compound I-14, Ethyl 3-(5-carbamoyl-4-(1-(2-chlorophenyl)ethoxy)thiophen-2-yl)imidazo[1,2-a]pyridin-7-ylcarbamate], under 100 nM.
In the case of `COC(=O)Nc1ccn2c(-c3cc(O[C@@H](C)c4ccccc4Cl)c(C(N)=O)s3)cnc2c1` [Compound I-19, (S)-methyl 3-(5-carbamoyl-4-(1-(2-chlorophenyl)ethoxy)thiophen-2-yl)imidazo[1,2-a]pyridin-7-ylcarbamate] it was under 100 nM; in that of `CC(Oc1cc(-c2cnc3cnccn23)sc1C(N)=O)c1ccccc1Cl` (stereo not shown) [Compound I-9], under 100 nM; in that of `CC(Oc1cc(-c2cnc3ccc(C(F)(F)F)cn23)sc1C(N)=O)c1ccccc1Cl` (stereo not shown) [Compound I-10, 3-(1-(2-chlorophenyl)ethoxy)-5-(6-(trifluoromethyl)imidazo[1,2-a]pyridin-3-yl)thiophene-2-carboxamide], under 100 nM.
With `CC(Oc1cc(-c2cnc3cc(C(F)(F)F)ccn23)sc1C(N)=O)c1ccccc1Cl` (stereo not shown) [Compound I-13, 3-(1-(2-chlorophenyl)ethoxy)-5-(7-(trifluoromethyl)imidazo[1,2-a]pyridin-3-yl)thiophene-2-carboxamide], the Ki is under 100 nM.
In the case of `COc1cnc2[nH]cc(-c3cc(OC(C)c4ccccc4Cl)c(C(N)=O)s3)c2c1` (stereo not shown) [Compound I-3, 3-[1-(2-Chloro-phenyl)-ethoxy]-5-(5-methoxy-1H-pyrrolo[2,3-b]pyridin-3-yl)-thiophene-2-carboxyamide] it was under 100 nM.
Turning to `CNC(=O)c1ccc2ncc(-c3cc(OC(C)c4ccccc4Cl)c(C(N)=O)s3)n2c1` (stereo not shown) [Compound I-7, 3-(5-carbamoyl-4-(1-(2-chlorophenyl)ethoxy)thiophen-2-yl)-N-methylimidazo[1,2-a]pyridine-6-carboxamide], the Ki was under 100 nM.
In the case of `CNC(=O)c1ccn2c(-c3cc(OC(C)c4ccccc4Cl)c(C(N)=O)s3)cnc2c1` (stereo not shown) [Compound I-11, 3-(5-carbamoyl-4-(1-(2-chlorophenyl)ethoxy)thiophen-2-yl)-N-methylimidazo[1,2-a]pyridine-7-carboxamide] it was under 100 nM; in that of `CC(Oc1cc(-c2cnc3[nH]ccc3c2)sc1C(N)=O)c1ccccc1Cl` (stereo not shown) [Compound I-5, 3-[1-(2-Chloro-phenyl)-ethoxy]-5-(1H-pyrrolo[2,3-b]pyridin-5-yl)-thiophene-2-carboxamide], 100 to 1000 nM; in that of `CCOC(=O)Nc1ccn2c(-c3cc(O[C@@H](CC)c4ccccc4Cl)c(C(N)=O)s3)cnc2c1` [Compound I-22, (S)-ethyl 3-(5-carbamoyl-4-(1-(2-chlorophenyl)propoxy)thiophen-2-yl)imidazo[1,2-a]pyridin-7-ylcarbamate], under 100 nM.
In the case of `COC(=O)N(C)c1ccn2c(-c3cc(OC(C)c4ccccc4Cl)c(C(N)=O)s3)cnc2c1` (stereo not shown) [Compound I-18, Methyl 3-(5-carbamoyl-4-(1-(2-chlorophenyl)ethoxy)thiophen-2-yl)imidazo[1,2-a]pyridin-7-yl(methyl)carbamate], the Ki was under 100 nM.
In the case of `CCOC(=O)Nc1ccn2c(-c3cc(OC(C)(C)c4ccccc4Cl)c(C(N)=O)s3)cnc2c1` [Compound I-25, Ethyl 3-(5-carbamoyl-4-(2-(2-chlorophenyl)propan-2-yloxy)thiophen-2-yl)imidazo[1,2-a]pyridin-7-ylcarbamate] it was under 100 nM; in that of `C=Cc1cnc2[nH]cc(-c3cc(OC(C)c4ccccc4Cl)c(C(N)=O)s3)c2c1` (stereo not shown) [Compound I-6, 3-(1-(2-chlorophenyl)ethoxy)-5-(5-vinyl-1H-pyrrolo[2,3-b]pyridin-3-yl)thiophene-2-carboxamide], under 100 nM; in that of `CC(Oc1cc(-c2cnc3ccc(F)cn23)sc1C(N)=O)c1ccccc1Cl` (stereo not shown) [Compound I-8, 3-(1-(2-chlorophenyl)ethoxy)-5-(6-fluoroimidazo[1,2-a]pyridin-3-yl)thiophene-2-carboxamide], under 100 nM.
Take `CC(Oc1cc(-c2nnc3ccc(N)nn23)sc1C(N)=O)c1ccccc1Cl` (stereo not shown) [Compound I-4]: the Ki is over 1000 nM.
As to `CC[C@H](Oc1cc(-c2cnc3cc(NC(=O)OC)ccn23)sc1C(N)=O)c1ccccc1Cl` [Compound I-21, (S)-methyl 3-(5-carbamoyl-4-(1-(2-chlorophenyl)propoxy)thiophen-2-yl)imidazo[1,2-a]pyridin-7-ylcarbamate], the Ki was under 100 nM.
In the case of `CC(Oc1cc(-c2cnc3cccnn23)sc1C(N)=O)c1ccccc1Cl` (stereo not shown) [Compound I-12, 3-(1-(2-chlorophenyl)ethoxy)-5-(imidazo[1,2-b]pyridazin-3-yl)thiophene-2-carboxamide] it was under 100 nM; in that of `CCOC(=O)Nc1ccn2c(-c3cc(O[C@@H](C)c4ccccc4Cl)c(C(N)=O)s3)cnc2c1` [Compound I-20, (S)-ethyl 3-(5-carbamoyl-4-(1-(2-chlorophenyl)ethoxy)thiophen-2-yl)imidazo[1,2-a]pyridin-7-ylcarbamate], under 100 nM; in that of `CNC(=O)c1sc(-c2cnc3ccccn23)cc1OC(C)c1ccccc1Cl` (stereo not shown) [Compound I-16, 3-(1-(2-chlorophenyl)ethoxy)-5-(imidazo[1,2-a]pyridin-3-yl)-N-methylthiophene-2-carboxamide], over 1000 nM.
Consider `CCOC(=O)N(C)c1ccn2c(-c3cc(OC(C)c4ccccc4Cl)c(C(N)=O)s3)cnc2c1` (stereo not shown) [Compound I-17, Ethyl 3-(5-carbamoyl-4-(1-(2-chlorophenyl)ethoxy)thiophen-2-yl)imidazo[1,2-a]pyridin-7-yl(methyl)carbamate], for which the Ki is under 100 nM.

Values taken from patent publication US8399478B2 (Vertex Pharmaceuticals Incorporated, priority 2006, dated 2013).
